Data taken from patent US11279733B2, “Peptide antibiotics” (priority 2017, dated 2022).
Values after ≈ are worked out from the molar mass of the structure shown. Positions of bridges follow the written chain, without caps; N, C: chain ends. Non-standard residues stand in square brackets, D forms with d. Residues, ends and D or L forms follow the SMILES beside them. *: point of attachment. Decanoyl(3R-OH) = CCCCCCC[C@@H](O)CC(=O)*; dPhe(4-NH2) = Nc1ccc(C[C@@H](N)C(=O)O)cc1; d3Pal = N[C@H](Cc1cccnc1)C(=O)O; Dab = NCC[C@H](N)C(=O)O

Assays:
[1] = tested on: K. pneumoniae GN_102 PmxR; details: GN 102 PmxR
Experimental: (§1) Bacteria were either obtained from American Type Culture Collection (ATCC; Manassas, Va., USA) or independent academic clinical isolate collections, as listed in Table 18 below. Bacteria were cultured in Nutrient broth (NB; Bacto Laboratories, catalogue No. 234000) or Mueller Hinton broth (MHB; Bacto Laboratories, catalogue No. 211443) at 37° C. overnight with shaking (˜180 RPM). A sample of each culture was then diluted 50-fold in fresh MHB and incubated at 37° C. for 2-3 h with shaking (˜180 RPM). Compound stock solutions were prepared as 0.64 mg/mL or 2.56 mg/mL in water. The compounds, at twice the final desired concentration, were serially diluted 2-fold across the wells of 96-well plates (Polystyrene, Corning, catalogue No. 3370). Mid-log phase bacterial cultures (after 2-3 h incubation) were diluted to a final concentration of 1×10^6 colony forming units (CFU)/mL, and 50 μL was added to each well giving a final cell density of 5×10^5 and a compound concentration range of 32 μg/mL to 0.015 μg/mL (128-0.06 μg/mL against P. aeruginosa PA9704).

A. baumannii ATCC 19606 = details: ATCC 19606
Experimental: as §1

[2] = tested on: P. aeruginosa GN_105, PmxR; details: GN 105, PmxR
Experimental: as §1

[3] = tested on: S. aureus ATCC 25923, MSSA; details: ATCC 25923
Experimental: as §1

K. pneumoniae ATCC 13883 = details: ATCC 13883
Experimental: as §1

E. coli ATCC 25922 = details: ATCC 25922
Experimental: as §1

A. baumannii GN_093 PmxR = details: GN 093 PmxR
Experimental: as §1

[4] = tested on: P. aeruginosa GN_043, PmxR; details: Table 6; polymyxin-resistant
Experimental: as §1

[5] = tested on: K. pneumoniae ATCC BAA-2146, NDM-1 pos; details: ATCC BAA-2146
Experimental: as §1

P. aeruginosa ATCC 27853 = details: ATCC 27853
Experimental: as §1

[6] = tested on: K. pneumoniae GN_106, PmxR; details: GN 106, PmxR
Experimental: as §1

[7] = tested on: K. pneumoniae ATCC 700603, MDR; details: ATCC 700603
Experimental: as §1

Row | Structure (SMILES) | MIC K. pneumoniae GN_102 PmxR [1] | MIC, A. baumannii ATCC 19606 (A. baumannii ATCC 19606) | MIC P. aeruginosa GN_105, PmxR [2] | MIC, S. aureus ATCC 25923, MSSA [3] | MIC, K. pneumoniae ATCC 13883 (K. pneumoniae ATCC 13883) | MIC, E. coli ATCC 25922 (E. coli ATCC 25922) | MIC A. baumannii GN_093 PmxR (A. baumannii GN_093 PmxR) | MIC P. aeruginosa GN_043, PmxR [4] | MIC, K. pneumoniae ATCC BAA-2146, NDM-1 pos [5] | MIC, P. aeruginosa ATCC 27853 (P. aeruginosa ATCC 27853) | MIC K. pneumoniae GN_106, PmxR [6] | MIC, K. pneumoniae ATCC 700603, MDR [7]
1 | CCCCCCC[C@@H](O)CC(=O)N[C@H](Cc1c[nH]c2ccccc12)C(=O)N[C@H]1CCNC(=O)[C@H](CC(C)C)NC(=O)[C@H](CCN)NC(=O)[C@H](CCN)NC(=O)[C@H](CC(C)C)NC(=O)[C@@H](Cc2ccccc2)NC(=O)[C@H](CCN)NC1=O [compound 6441, 3(R)OH-nC9CO-D-Trp-cyc[L-Dab-L-Dab-D-Phe-L-Leu-L-Dab-L-Dab-L-Leu]] ({Decanoyl(3R-OH)}-[dW][Dab][Dab][dF]L[Dab][Dab]L; lactam 2-C) | 8 µg/mL (≈ 7.08 µM) | 16 µg/mL (≈ 14.2 µM) | 16 µg/mL (≈ 14.2 µM) | 8 µg/mL (≈ 7.08 µM) | 16 µg/mL (≈ 14.2 µM) | 16 µg/mL (≈ 14.2 µM) | 32 µg/mL (≈ 28.3 µM) | 8 µg/mL (≈ 7.08 µM) | 8 µg/mL (≈ 7.08 µM) | 16 µg/mL (≈ 14.2 µM) | 4 µg/mL (≈ 3.54 µM) | 8 µg/mL (≈ 7.08 µM)
2 | CCCCCCC[C@@H](O)CC(=O)N[C@H](Cc1ccc(N)cc1)C(=O)N[C@H]1CCNC(=O)[C@H](CC(C)C)NC(=O)[C@H](CCN)NC(=O)[C@H](CCN)NC(=O)[C@H](CC(C)C)NC(=O)[C@@H](Cc2ccccc2)NC(=O)[C@H](CCN)NC1=O [compound 6444, 3(R)OH-nC9CO-D-4NH2Phe-cyc[L-Dab-L-Dab-D-Phe-L-Leu-L-Dab-L-Dab-L-Leu]] ({Decanoyl(3R-OH)}-[dPhe(4-NH2)][Dab][Dab][dF]L[Dab][Dab]L; lactam 2-C) | 8 µg/mL (≈ 7.23 µM) | 32 µg/mL (≈ 28.9 µM) | 16 µg/mL (≈ 14.5 µM) | >32 µg/mL | 8 µg/mL (≈ 7.23 µM) | 8 µg/mL (≈ 7.23 µM) | 32 µg/mL (≈ 28.9 µM) | 32 µg/mL (≈ 28.9 µM) | 8 µg/mL (≈ 7.23 µM) | 16 µg/mL (≈ 14.5 µM) | 8 µg/mL (≈ 7.23 µM) | 8 µg/mL (≈ 7.23 µM)
3 | CCCCCCC[C@@H](O)CC(=O)N[C@H](Cc1cccnc1)C(=O)N[C@H]1CCNC(=O)[C@H](CC(C)C)NC(=O)[C@H](CCN)NC(=O)[C@H](CCN)NC(=O)[C@H](CC(C)C)NC(=O)[C@@H](Cc2ccccc2)NC(=O)[C@H](CCN)NC1=O [compound 6445, 3(R)OH-nC9CO-D-3PyPhe-cyc[L-Dab-L-Dab-D-Phe-L-Leu-L-Dab-L-Dab-L-Leu]] ({Decanoyl(3R-OH)}-[d3Pal][Dab][Dab][dF]L[Dab][Dab]L; lactam 2-C) | 8 µg/mL (≈ 7.32 µM) | 32 µg/mL (≈ 29.3 µM) | 8 µg/mL (≈ 7.32 µM) | >32 µg/mL | 4 µg/mL (≈ 3.66 µM) | 8 µg/mL (≈ 7.32 µM) | >32 µg/mL | 8 µg/mL (≈ 7.32 µM) | 8 µg/mL (≈ 7.32 µM) | 16 µg/mL (≈ 14.6 µM) | 4 µg/mL (≈ 3.66 µM) | 8 µg/mL (≈ 7.32 µM)
4 | CCCCCCC[C@@H](O)CC(=O)NCC(=O)N[C@H]1CCNC(=O)[C@H](CC(C)C)NC(=O)[C@H](CCN)NC(=O)[C@H](CCN)NC(=O)[C@H](CC(C)C)NC(=O)[C@@H](Cc2ccccc2)NC(=O)[C@H](CCN)NC1=O [compound 6446, 3(R)OH-nC9CO-Gly-cyc[L-Dab-L-Dab-D-Phe-L-Leu-L-Dab-L-Dab-L-Leu]] ({Decanoyl(3R-OH)}-G[Dab][Dab][dF]L[Dab][Dab]L; lactam 2-C) | 4 µg/mL (≈ 3.99 µM) | 32 µg/mL (≈ 32 µM) | 4 µg/mL (≈ 3.99 µM) | >32 µg/mL | 8 µg/mL (≈ 7.99 µM) | 8 µg/mL (≈ 7.99 µM) | 32 µg/mL (≈ 32 µM) | 4 µg/mL (≈ 3.99 µM) | 8 µg/mL (≈ 7.99 µM) | 4 µg/mL (≈ 3.99 µM) | 8 µg/mL (≈ 7.99 µM) | 8 µg/mL (≈ 7.99 µM)
